Experimental data taken from ChEMBL document CHEMBL1151119, “Isolation and structure of the cytostatic lignan glycoside phyllanthostatin A” (1988).
In brackets after ≈: the same amount, converted by molar mass.

System: P388
Experiment: Cytotoxicity against mouse P388 cells
Format: functional
Conditions: read-out: ED50 (the source's name)

COc1cc2cc(COC(C)=O)c(C(=O)O[C@@H]3O[C@H](CO)[C@@H](O)[C@H](O)[C@H]3O)c(-c3ccc4c(c3)OCO4)c2cc1OC [PHYLLANTHOSTATIN A]
EC50: 4 µg/mL (≈ 6.82 µM)
